Measurements reported in article PMC6271006, “Monoamine Oxidase Inhibitory Constituents of Propolis: Kinetics and Mechanism of Inhibition of Recombinant Human MAO-A and MAO-B” (Molecules, 2014).
Like-named read-outs stand apart in the source and are kept apart here.

Experiments:
recombinant human MAO-A [1] = biological target: T1, recombinant human MAO-A (Homo sapiens, UniProt P21397); assay: MAO-A inhibition, kynuramine deamination assay (IC50); format: biochemical; conditions: for IC50: pure compounds, 80 μM kynuramine, mean ± S.D. of triplicate, read-out: Monoamine Oxidase-A (IC50)
T1 construct: purchased BD Biosciences (Bedford, MA, USA)
T1 sequence (P21397 1-527): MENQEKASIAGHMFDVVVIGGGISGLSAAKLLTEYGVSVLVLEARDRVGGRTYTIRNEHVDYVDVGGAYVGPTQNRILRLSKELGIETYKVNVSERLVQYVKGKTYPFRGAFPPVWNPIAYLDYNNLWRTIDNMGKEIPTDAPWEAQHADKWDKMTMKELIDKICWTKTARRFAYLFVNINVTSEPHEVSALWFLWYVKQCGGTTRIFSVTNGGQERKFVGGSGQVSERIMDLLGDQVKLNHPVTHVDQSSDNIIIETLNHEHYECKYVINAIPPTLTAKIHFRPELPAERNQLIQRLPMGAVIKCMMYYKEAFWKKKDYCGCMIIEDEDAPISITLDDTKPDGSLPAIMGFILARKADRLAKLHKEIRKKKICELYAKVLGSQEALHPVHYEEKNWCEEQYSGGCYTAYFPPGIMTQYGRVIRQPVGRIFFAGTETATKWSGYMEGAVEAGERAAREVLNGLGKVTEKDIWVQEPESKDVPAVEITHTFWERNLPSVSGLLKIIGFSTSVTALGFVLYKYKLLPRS
Protocol: (§1) To investigate the effect of the selected constituents on MAO-A and MAO-B, the kynuramine deamination assay was adapted for 96-well plates as described earlier. […] For MAO-A, the substrate concentration of 80 μM kynuramine was chosen because the apparent KM value for substrate binding reported previously was approximately 40 μM [48]. […] Similarly, for MAO-B, substrate concentration of 50 μM kynuramine was chosen. The assay was performed with the addition of inhibitor. Inhibition was calculated as percent of product formation compared to the corresponding control (enzyme-substrate reaction) without the inhibitors. The reactions were carried out in 0.1 M potassium phosphate buffer at pH 7.4. Incubations mixtures contained 5 μg/mL of MAO-A (50 μL in buffer) and 10 μg/mL of MAO-B (50 μL in buffer). The inhibitor was dissolved in DMSO or in buffer (if not dissolved in DMSO). The total reaction volume was 200 μL yielding a final DMSO concentration of 1.0% in the reaction mixture. The reaction mixtures were pre-incubated for 10 min at 37 °C followed by the addition of MAO-A/MAO-B to initiate the reactions. Reactions were incubated for 20 min at 37 °C and were stopped immediately by the addition of 75 μL of 2N NaOH. The formation of 4-hydroxyquinoline was determined fluorometrically by SpectraMax M5 fluorescence plate reader (Molecular Devices, Sunnyvale, CA, USA) with an excitation and emission wavelength of 320 nm and 380 nm, respectively, using the Soft Max Pro program. Appropriate controls with the test compounds, fractions and extracts, where the enzyme or the substrate was added after stopping the reaction were setup simultaneously to check interference with the fluorescence measurements.
(§2) IC50 values for inhibition of MAO-A and B by the selected constituents were determined using fixed concentration of substrate and varying concentration of the inhibitor.

recombinant human MAO-B [2] = biological target: T2, recombinant human MAO-B (Homo sapiens, UniProt P27338); assay: MAO-B inhibition, kynuramine deamination assay (IC50); format: biochemical; conditions: pure compounds; 50 μM kynuramine; mean ± S.D. of triplicate; read-out: Monoamine Oxidase-B (IC50)
T2 construct: purchased BD Biosciences (Bedford, MA, USA)
T2 sequence (P27338 1-520): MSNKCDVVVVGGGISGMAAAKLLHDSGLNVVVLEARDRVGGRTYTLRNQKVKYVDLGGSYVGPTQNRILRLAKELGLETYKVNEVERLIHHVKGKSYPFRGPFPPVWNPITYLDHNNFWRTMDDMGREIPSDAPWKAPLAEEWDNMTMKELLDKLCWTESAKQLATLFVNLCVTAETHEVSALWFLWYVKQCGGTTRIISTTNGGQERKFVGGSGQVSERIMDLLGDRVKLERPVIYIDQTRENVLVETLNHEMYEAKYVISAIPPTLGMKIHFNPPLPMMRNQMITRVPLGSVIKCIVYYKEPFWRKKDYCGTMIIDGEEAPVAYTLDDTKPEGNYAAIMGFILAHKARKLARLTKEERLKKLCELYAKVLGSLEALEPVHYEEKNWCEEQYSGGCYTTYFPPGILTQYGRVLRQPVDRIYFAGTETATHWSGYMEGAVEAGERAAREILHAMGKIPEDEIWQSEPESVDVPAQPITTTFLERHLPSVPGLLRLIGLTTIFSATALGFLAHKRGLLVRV
Protocol: as §1, §2

recombinant human MAO-A [3] = biological target: T1, recombinant human MAO-A; assay: Enzyme kinetics / inhibition mechanism, MAO-A (Ki, Lineweaver-Burk); format: biochemical; conditions: for Ki: kynuramine 1.90-500 μM, SigmaPlot enzyme module, mean ± S.D. of triplicate experiments, read-out: Monoamine Oxidase-A Ki
Description: (§3) Based on dose-response inhibition, two concentrations of the inhibitors were selected, one below and another above IC50 value for the inhibition. For each experiment, three sets of assays were done at varying concentrations of the substrate, one control without inhibitors and with two concentrations of the inhibitor.
(§4) Controls without inhibitor were also run simultaneously.

recombinant human MAO-B [4] = biological target: T2, recombinant human MAO-B; assay: Enzyme kinetics / inhibition mechanism, MAO-B (Ki, Lineweaver-Burk); format: biochemical
Description: as §3, §4

recombinant human MAO-A [5] = biological target: T1, recombinant human MAO-A; assay: Time-dependent enzyme inhibition, MAO-A; format: biochemical; conditions: pre-incubation 0-15 min; galangin 0.25 μM, apigenin 1.2 μM
Protocol: (§5) The controls without inhibitors were also run simultaneously. Activities of the enzymes were determined as described above and percentage of enzyme activity remaining was plotted against the preincubation time to determine time-dependent inhibition.
(§6) The controls without inhibitors were also run simultaneously. Activities of the enzymes were determined as described above and percentage of enzyme activity remaining was plotted against the preincubation time to determine time-dependent enzyme-inhibition.

recombinant human MAO-B [6] = biological target: T2, recombinant human MAO-B; assay: Time-dependent enzyme inhibition, MAO-B; format: biochemical; conditions: pre-incubation 0-15 min; galangin 14.0 μM, apigenin 4.0 μM
Protocol: as §5, §6

recombinant human MAO-A [7] = biological target: T1, recombinant human MAO-A; assay: Reversibility of binding by enzyme-inhibitor complex dissociation dialysis, MAO-A; format: biochemical; conditions: for MAO-A activity recovered after dialysis: overnight dialysis; for Nature of binding with MAO-A: dialysis dissociation
Protocol: (§7) The characteristic binding of these inhibitors was also investigated by the enzyme-inhibitor complex dissociation by dialysis. High concentrations of the inhibitors were allowed to interact with the enzyme (MAO-A or B) for 20 min and the resulting enzyme-inhibitor complex mixtures were dialyzed overnight against buffer solutions. The catalytic activities of the enzymes were analyzed before and after the dialysis. The recombinant human MAO-A lost about 30% of the enzyme activity during overnight dialysis. […] After the dialysis about 70% and 80% activity of the enzyme was recovered from enzyme-galangin and enzyme-apigenin incubation mixtures. This observation indicated reversal of the enzyme activity due to formation of dissociable enzyme-inhibitor complex. […] The recombinant MAO-B lost about 30% of the enzyme activity during overnight dialysis.
(§8) Most of the inhibitors produce inhibition of the target enzyme through formation of an enzyme-inhibitor complex. Formation of the enzyme-inhibitor complex may be accelerated in presence of high concentration of the inhibitor. […] After 20 min incubation at 37 °C, the reaction was stopped by chilling the tubes on the ice bath. All the samples were dialyzed against potassium phosphate buffer (25 mM; pH 7.4) at 4 °C for 14 h (three buffer changes). Control enzyme (without inhibitor) was also run through the same procedure and activity of the enzyme was determined before and after the dialysis. Recovery of the catalytic activity enzyme after extensive dialysis of the enzyme-inhibitor mix provided the information about reversibility/irreversibility of binding of the inhibitor with the enzyme.

recombinant human MAO-B [8] = biological target: T2, recombinant human MAO-B; assay: Reversibility of binding by enzyme-inhibitor complex dissociation dialysis, MAO-B; format: biochemical; conditions: for MAO-B activity recovery after dialysis: overnight dialysis
Protocol: as §7, §8

total MAO (A & B) = tested on: total MAO (A & B); design: method as in not given; conditions: mouse brain crude mitochondrial preparation; earlier study, ref not given; read-out: IC50 for inhibition of total MAO (A & B); cited from earlier work
MAO-A = tested on: MAO-A; design: method as in not given; conditions: mouse brain crude mitochondrial preparation, iso-enzyme specific substrates; earlier study, ref not given; cited from earlier work

O=c1cc(-c2ccc(O)cc2)oc2cc(O)cc(O)c12 [Apigenin, apigenin]
IC50 (recombinant human MAO-A [1]): 640 ± 110 nM | IC50 (recombinant human MAO-B [2]): 1120 ± 270 nM | Monoamine Oxidase-A Type of Inhibition (recombinant human MAO-A [3]): Competitive/Reversible | Ki (recombinant human MAO-A [3]): 125 ± 14 nM | Monoamine Oxidase-A Type of Inhibition (recombinant human MAO-A [3]; listed as apigenin): competitive | Monoamine Oxidase-B Type of Inhibition (recombinant human MAO-B [4]): Competitive/Reversible | Ki (recombinant human MAO-B [4]; kynuramine 1.90-500 μM, SigmaPlot enzyme module, mean ± S.D. of triplicate experiments, read-out: Monoamine Oxidase-B Ki): 238 ± 24 nM | Monoamine Oxidase-B Type of Inhibition (recombinant human MAO-B [4]; listed as apigenin): competitive | Time-dependence of binding/inhibition of MAO-A (recombinant human MAO-A [5]): not dependent on pre-incubation time | Time-dependence of binding/inhibition of MAO-B (recombinant human MAO-B [6]): not dependent on pre-incubation time | inhibition at 20 µM (recombinant human MAO-A [7]; 20.0 μM inhibitor, 20 min incubation, read-out: Inhibition of catalytic activity of MAO-A before dialysis): > 88% | MAO-A activity recovered after dialysis (recombinant human MAO-A [7]; 20.0 μM inhibitor): ~80% | Nature of binding with MAO-A (recombinant human MAO-A [7]): reversible | inhibition at 25 µM (recombinant human MAO-B [8]; 25.0 μM inhibitor, 20 min incubation, read-out: Inhibition of catalytic activity of MAO-B before dialysis): ~90% | MAO-B activity recovery after dialysis (recombinant human MAO-B [8]; 25.0 μM inhibitor): almost fully recovered | IC50 (total MAO (A & B)): 1000 nM | Potency of MAO-A inhibition relative to MAO-B (MAO-A): about 7.5 fold

O=c1c(O)c(-c2ccc(O)c(O)c2)oc2cc(O)ccc12 [Fisetin hydrate, fisetin]
Selectivity for MAO-A vs. MAO-B (recombinant human MAO-A [1]; MAO-A over MAO-B): > 47 fold | IC50 (recombinant human MAO-A [1]): 2100 ± 90 nM | IC50 (recombinant human MAO-B [2]): > 100000 nM

O=c1c(O)c(-c2ccccc2)oc2cc(O)cc(O)c12 [Galangin, galangin]
IC50 (recombinant human MAO-A [1]): 130 ± 10 nM | Monoamine Oxidase-A Type of Inhibition (recombinant human MAO-A [3]): Competitive/Reversible | Ki (recombinant human MAO-A [3]): 29 ± 4 nM | Monoamine Oxidase-A Type of Inhibition (recombinant human MAO-A [3]; listed as galangin): competitive | Monoamine Oxidase-B Type of Inhibition (recombinant human MAO-B [4]): Competitive/Reversible | Monoamine Oxidase-B Type of Inhibition (recombinant human MAO-B [4]; listed as galangin): competitive | Time-dependence of binding/inhibition of MAO-A (recombinant human MAO-A [5]): not dependent on pre-incubation time | Time-dependence of binding/inhibition of MAO-B (recombinant human MAO-B [6]): not dependent on pre-incubation time | inhibition at 10 µM (recombinant human MAO-A [7]; 10.0 μM inhibitor, 20 min incubation, read-out: Inhibition of catalytic activity of MAO-A before dialysis): > 97% | MAO-A activity recovered after dialysis (recombinant human MAO-A [7]; 10.0 μM inhibitor): about 70% | Nature of binding with MAO-A (recombinant human MAO-A [7]): reversible | Inhibition of MAO-B enzyme activity before dialysis (recombinant human MAO-B [8]; 50.0 μM inhibitor, 20 min incubation): ~58.3 | MAO-B activity recovery after dialysis (recombinant human MAO-B [8]; 50.0 μM inhibitor): almost completely recovered

COc1ccc2c(c1)[nH]c1c(C)nccc12 [Harmine, reference compound]
IC50 (recombinant human MAO-B [2]): 27500 ± 2670 nM | Monoamine Oxidase-A Type of Inhibition (recombinant human MAO-A [3]): Competitive/Reversible

O=c1c(O)c(-c2ccc(O)cc2O)oc2cc(O)cc(O)c12 [Morin hydrate, morin]
Selectivity for MAO-A vs. MAO-B (recombinant human MAO-A [1]; MAO-A over MAO-B): 9 fold | IC50 (recombinant human MAO-A [1]): 5880 ± 150 nM | IC50 (recombinant human MAO-B [2]): 49700 ± 560 nM

O=c1c(O)c(-c2ccc(O)c(O)c2)oc2cc(O)cc(O)c12 [Quercetin, quercetin]
Selectivity for MAO-A vs. MAO-B (recombinant human MAO-A [1]): 15 fold | IC50 (recombinant human MAO-A [1]): 2440 ± 120 nM | IC50 (recombinant human MAO-B [2]): 38700 ± 1200 nM

O=C1c2c(O)cc(O)cc2OC(c2ccc(O)c(O)c2)C1O (stereo not shown) [Toxifolin, taxifolin]
IC50 (recombinant human MAO-A [1]): 65100 ± 1960 nM | IC50 (recombinant human MAO-B [2]): 53800 ± 3910 nM
